# Measured values as given in ChEMBL document CHEMBL1201862, “PubChem BioAssay data set” (2004).
#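 Dose response: 5 concentrations. Exposure: 48 h. Format: 96-well plates. Endpoint: linear interpolation; highest concentration if not reached. The concentration for 50% growth inhibition is given as GI50.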 The source made the active and inactive calls. Cut-off read from the data, not from the text of the source: active = GI50 up to about 1.1 µM and inactive = higher.
# Columns and labels:
# Assay in all cases: NCI anticancer screen, dose series, 48 h
# SW-620 = system: SW-620
# HCT-15 = system: HCT-15
# UO-31 = system: UO-31
# XF498 = system: XF498
# SF-295 = system: SF-295
# HCT-116 = system: HCT-116
# SNB-78 = system: SNB-78
# SK-MEL-5 = system: SK-MEL-5
# K562 = system: K562
# HCC 2998 = system: HCC 2998
# UACC-257 = system: UACC-257
# M19-MEL = system: M19-MEL
# SK-MEL-28 = system: SK-MEL-28
# DLD-1 = system: DLD-1
# HOP-92 = system: HOP-92
# OVCAR-8 = system: OVCAR-8
# CCRF-CEM = system: CCRF-CEM
# KM12 = system: KM12
# A498 = system: A498
# SN12C = system: SN12C
# CAKI-1 = system: CAKI-1
# SF-268 = system: SF-268
# HOP-62 = system: HOP-62
# Malme-3M = system: Malme-3M
# U-251 = system: U-251
# EKVX = system: EKVX
# SF-539 = system: SF-539
# RXF 393 = system: RXF 393
# SNB-75 = system: SNB-75
# OVCAR-4 = system: OVCAR-4
# UACC-62 = system: UACC-62
# HT-29 = system: HT-29
# NCI/ADR-RES = system: NCI/ADR-RES
# SK-OV-3 = system: SK-OV-3
# NCI-H226 = system: NCI-H226
# HL-60 = system: HL-60
# LOX IMVI = system: LOX IMVI
# SK-MEL-2 = system: SK-MEL-2
# NCI-H522 = system: NCI-H522
# NCI-H23 = system: NCI-H23
# OVCAR-3 = system: OVCAR-3
# MOLT-4 = system: MOLT-4
# OVCAR-5 = system: OVCAR-5
# NCI-H460 = system: NCI-H460
# DMS-273 = system: DMS-273
# SNB-19 = system: SNB-19
# A549 = system: A549
# IGROV-1 = system: IGROV-1
# HOP-18 = system: HOP-18
# DMS-114 = system: DMS-114
# KM-20L2 = system: KM-20L2
# COLO 205 = system: COLO 205
# MCF7 = system: MCF7
# SR = system: SR
# TK-10 = system: TK-10
# RPMI-8226 = system: RPMI-8226
# ACHN = system: ACHN
# M14 = system: M14
# LXFL 529 = system: LXFL 529
# 786-0 = system: 786-0
structure (smiles),measurement,setting,value
c1ccc2c(c1)SCCc1cn[nH]c1-2,GI50,SW-620,> 100 µM (inactive)
same,GI50,HCT-15,> 100 µM
same,GI50,UO-31,> 100 µM (inactive)
same,GI50,XF498,> 100 µM (inactive)
same,GI50,SF-295,> 100 µM (inactive)
same,GI50,HCT-116,> 100 µM (inactive)
same,GI50,SNB-78,> 100 µM (inactive)
same,GI50,SK-MEL-5,> 100 µM (inactive)
same,GI50,K562,> 100 µM (inactive)
same,GI50,HCC 2998,> 100 µM (inactive)
same,GI50,UACC-257,> 100 µM (inactive)
same,GI50,M19-MEL,> 100 µM (inactive)
same,GI50,SK-MEL-28,> 100 µM (inactive)
same,GI50,DLD-1,> 100 µM (inactive)
same,GI50,HOP-92,> 73.5 µM (inactive)
same,GI50,OVCAR-8,> 100 µM (inactive)
same,GI50,CCRF-CEM,> 100 µM (inactive)
same,GI50,KM12,> 100 µM (inactive)
same,GI50,A498,> 100 µM (inactive)
same,GI50,SN12C,> 100 µM (inactive)
same,GI50,CAKI-1,> 100 µM (inactive)
same,GI50,SF-268,> 100 µM (inactive)
same,GI50,HOP-62,> 100 µM (inactive)
same,GI50,Malme-3M,> 100 µM (inactive)
same,GI50,U-251,> 100 µM (inactive)
same,GI50,EKVX,> 100 µM (inactive)
same,GI50,SF-539,> 100 µM (inactive)
same,GI50,RXF 393,> 100 µM (inactive)
same,GI50,SNB-75,> 92.5 µM (inactive)
same,GI50,OVCAR-4,> 100 µM (inactive)
same,GI50,UACC-62,> 100 µM (inactive)
same,GI50,HT-29,> 100 µM (inactive)
same,GI50,NCI/ADR-RES,> 100 µM (inactive)
same,GI50,SK-OV-3,> 100 µM (inactive)
same,GI50,NCI-H226,24.7 µM (inactive)
same,GI50,HL-60,> 100 µM (inactive)
same,GI50,LOX IMVI,> 100 µM (inactive)
same,GI50,SK-MEL-2,> 100 µM (inactive)
same,GI50,NCI-H522,> 100 µM (inactive)
same,GI50,NCI-H23,> 100 µM (inactive)
same,GI50,OVCAR-3,> 100 µM (inactive)
same,GI50,MOLT-4,> 100 µM (inactive)
same,GI50,OVCAR-5,> 100 µM (inactive)
same,GI50,NCI-H460,> 100 µM (inactive)
same,GI50,DMS-273,> 100 µM (inactive)
same,GI50,SNB-19,> 100 µM (inactive)
same,GI50,A549,> 100 µM (inactive)
same,GI50,IGROV-1,> 100 µM (inactive)
same,GI50,HOP-18,> 100 µM (inactive)
same,GI50,DMS-114,> 100 µM (inactive)
same,GI50,KM-20L2,> 100 µM (inactive)
same,GI50,COLO 205,> 100 µM (inactive)
same,GI50,MCF7,> 100 µM (inactive)
C=C(Cl)Cc1c(O)c2c(c(O)c1CC(=C)Cl)C(=O)c1ccccc1C2=O,GI50,SW-620,> 100 µM (inactive)
same,GI50,HCT-15,> 100 µM
same,GI50,XF498,> 100 µM (inactive)
same,GI50,SK-MEL-5,> 100 µM (inactive)
same,GI50,K562,> 100 µM (inactive)
same,GI50,SR,> 100 µM (inactive)
same,GI50,HCC 2998,> 100 µM (inactive)
same,GI50,DLD-1,> 100 µM (inactive)
same,GI50,OVCAR-8,> 100 µM (inactive)
same,GI50,CCRF-CEM,> 100 µM (inactive)
same,GI50,TK-10,> 100 µM (inactive)
same,GI50,SN12C,> 100 µM (inactive)
same,GI50,CAKI-1,> 100 µM (inactive)
same,GI50,RPMI-8226,> 100 µM (inactive)
same,GI50,HOP-62,> 100 µM (inactive)
same,GI50,Malme-3M,> 100 µM (inactive)
same,GI50,U-251,> 100 µM (inactive)
same,GI50,EKVX,> 100 µM (inactive)
same,GI50,OVCAR-4,> 100 µM (inactive)
same,GI50,UACC-62,> 100 µM (inactive)
same,GI50,SK-OV-3,> 100 µM (inactive)
same,GI50,ACHN,> 100 µM (inactive)
same,GI50,HL-60,> 100 µM (inactive)
same,GI50,LOX IMVI,> 100 µM (inactive)
same,GI50,SK-MEL-2,> 100 µM (inactive)
same,GI50,M14,> 100 µM (inactive)
same,GI50,MOLT-4,> 100 µM (inactive)
same,GI50,OVCAR-5,> 100 µM (inactive)
same,GI50,DMS-273,> 100 µM (inactive)
same,GI50,LXFL 529,> 100 µM (inactive)
same,GI50,A549,> 100 µM (inactive)
same,GI50,IGROV-1,> 100 µM (inactive)
same,GI50,DMS-114,> 100 µM (inactive)
same,GI50,KM-20L2,> 100 µM (inactive)
same,GI50,786-0,> 100 µM (inactive)
same,GI50,COLO 205,> 100 µM (inactive)
O=C(CC/C=C(/CS(=O)(=O)c1ccccc1)S(=O)(=O)c1ccccc1)c1ccccc1,GI50,SW-620,> 100 µM (inactive)
same,GI50,HCT-15,> 100 µM
same,GI50,UO-31,> 100 µM (inactive)
same,GI50,XF498,95.9 µM (inactive)
same,GI50,SF-295,> 100 µM (inactive)
same,GI50,HCT-116,> 100 µM (inactive)
same,GI50,SK-MEL-5,> 100 µM (inactive)
same,GI50,K562,> 100 µM (inactive)
same,GI50,SR,56.8 µM (inactive)
same,GI50,HCC 2998,> 100 µM (inactive)
same,GI50,UACC-257,> 100 µM (inactive)
same,GI50,SK-MEL-28,> 100 µM (inactive)
same,GI50,DLD-1,> 100 µM (inactive)
same,GI50,HOP-92,> 100 µM (inactive)
same,GI50,OVCAR-8,> 100 µM (inactive)
same,GI50,CCRF-CEM,12.1 µM (inactive)
same,GI50,KM12,> 100 µM (inactive)
same,GI50,TK-10,> 100 µM (inactive)
same,GI50,A498,> 100 µM (inactive)
same,GI50,SN12C,> 100 µM (inactive)
same,GI50,RPMI-8226,> 100 µM (inactive)
same,GI50,HOP-62,> 100 µM (inactive)
same,GI50,Malme-3M,> 10 µM (inactive)
same,GI50,U-251,72.3 µM (inactive)
same,GI50,EKVX,> 100 µM (inactive)
same,GI50,SF-539,> 100 µM (inactive)
same,GI50,RXF 393,70.8 µM (inactive)
same,GI50,SNB-75,25.6 µM (inactive)
same,GI50,OVCAR-4,> 100 µM (inactive)
same,GI50,UACC-62,22.2 µM (inactive)
same,GI50,HT-29,75 µM (inactive)
same,GI50,SK-OV-3,44 µM (inactive)
same,GI50,NCI-H226,> 100 µM (inactive)
same,GI50,ACHN,> 100 µM (inactive)
same,GI50,HL-60,42.9 µM (inactive)
same,GI50,LOX IMVI,> 100 µM (inactive)
same,GI50,SK-MEL-2,50.8 µM (inactive)
same,GI50,M14,> 100 µM (inactive)
same,GI50,NCI-H522,10.4 µM (inactive)
same,GI50,NCI-H23,> 100 µM (inactive)
same,GI50,OVCAR-3,85.5 µM (inactive)
same,GI50,MOLT-4,> 100 µM (inactive)
same,GI50,OVCAR-5,> 100 µM (inactive)
same,GI50,NCI-H460,> 100 µM (inactive)
same,GI50,DMS-273,> 100 µM (inactive)
same,GI50,SNB-19,> 100 µM (inactive)
same,GI50,A549,> 100 µM (inactive)
same,GI50,IGROV-1,> 100 µM (inactive)
same,GI50,HOP-18,> 100 µM (inactive)
same,GI50,DMS-114,21.7 µM (inactive)
same,GI50,KM-20L2,> 100 µM (inactive)
